From ChEMBL document CHEMBL3272299, “Antineoplastic agents. 1. N-Protected vinyl, 1,2-dihaloethyl, and cyanomethyl esters of phenylalanine” (J Med Chem, 1977) come the findings set out here.

Each structure is given as a SMILES string. The source made the active and inactive calls. The rule behind the calls is not given here.

Data set [1] deals with Ehrlich. The data set is described as follows: Antitumor activity against mouse EAC allografted in CF1 mouse assessed as host survival at 33 mg/kg/day measured on day 7. Format: functional, organism-based.
In data set [2] the test system is Ehrlich. Briefly: Antitumor activity against mouse EAC allografted in CF1 mouse assessed as tumor volume at 33 mg/kg/day measured on day 7. The data set is classed as functional.
In data set [3] the test system is Ehrlich. Briefly: Antitumor activity against mouse EAC allografted in CF1 mouse assessed as inhibition of tumor growth at 33 mg/kg/day measured on day 7. The data set is classed as functional. The settings on record: 168 h.
Data set [4] is described as follows: Acute toxicity in CF1 mouse. Format: organism-based. Particulars: in vivo.
Data set [5] in a line: Chemical stability of the compound by TLC analysis. The data set is classed as physicochemical.
A short description of data set [6]: Chemical stability of the compound assessed as optical rotation. The data set is classed as physicochemical.

By inhibition in vivo is commonly meant the drop in the measured response relative to a control, in per cent. As for `CCOC(=O)[C@H](Cc1ccccc1)NC(=O)/C=C/c1ccccc1`, the Survival entry with Ehrlich [1] is “Active”. In addition, the Activity in the data set on Ehrlich [2] amounted to 5 mL. In addition, in the data set on Ehrlich [3], the inhibition in vivo at 33 mg/kg/day is 0%.

By LD50 is commonly meant the dose expected to kill half of the subjects tested. Low readings indicate a more toxic substance, high ones a less toxic substance. As to `N#CCOC(=O)[C@H](Cc1ccccc1)NC(=O)c1ccccc1`, in the data set on Ehrlich [2], the Activity was found to be 1.8 mL. For the same compound, the inhibition in vivo at 33 mg/kg/day in the data set with Ehrlich [3] came to 47%. This compound displayed a 50% lethal dose (LD50) in data set [4] of 360 µmol/kg. The Stability result in data set [5] and in data set [6] was “Stable” throughout.

Turning to `C=CCOC(=O)C(Cc1ccccc1)NC(=O)OCc1ccccc1` (racemic), the Survival entry in the data set on Ehrlich [1] is “Active”. Besides, in the data set with Ehrlich [2], the Activity was found to be 0.6 mL. Moreover, the inhibition in vivo at 33 mg/kg/day in the data set on Ehrlich [3] is 71%. Also, the Stability result in data set [5] and in data set [6] was “Stable” in each case.

On to `C=COC(=O)[C@@H](N)Cc1ccccc1.Cl`, for which the Activity in the data set with Ehrlich [2] came to 2.2 mL. Besides, the inhibition in vivo at 33 mg/kg/day in the data set with Ehrlich [3] worked out at 41%. Further, the Stability entry in data set [5] and in data set [6] was “Stable” each time.

`O=C(O)CCCc1ccc(N(CCCl)CCCl)cc1` [CHLORAMBUCIL] came in with a 50% lethal dose (LD50) in data set [4] of 61 µmol/kg.

For `C#CCN[C@@H](Cc1ccccc1)C(=O)OCC`, in the data set with Ehrlich [1], the Survival entry is “Active”. Besides, the Activity in the data set on Ehrlich [2] is 3.7 mL. In addition, the inhibition in vivo at 33 mg/kg/day in the data set with Ehrlich [3] came out at 16%.

Take `Cc1ccc(S(=O)(=O)N[C@@H](Cc2ccccc2)C(=O)O)cc1`: the Survival result with Ehrlich [1] is “Active”. In the data set on Ehrlich [2], the Activity was determined as 0.5 mL. Further, in the data set with Ehrlich [3], the inhibition in vivo at 33 mg/kg/day is 84%.

For `C=CCOC(=O)[C@H](Cc1ccccc1)NC(=O)OCc1ccccc1`, the Survival entry in the data set with Ehrlich [1] was “Active”. In the data set with Ehrlich [2], the Activity came to 2.6 mL. For the same compound, the inhibition in vivo at 33 mg/kg/day with Ehrlich [3] amounted to 24%. Moreover, the Stability result in data set [5] and in data set [6] was “Stable” each time.

For the compound `O=Cc1ccccc1` [BENZALDEHYDE], in the data set with Ehrlich [1], the Survival result was “Active”. In addition, the Activity in the data set on Ehrlich [2] was determined as 0.8 mL. For the same compound, the inhibition in vivo at 33 mg/kg/day in the data set with Ehrlich [3] was 69%.

As for `C=COC(=O)C(Cc1ccccc1)NC(=O)OCc1ccccc1` (racemic), the Survival result in the data set on Ehrlich [1] is “Active”. In addition, the Activity in the data set on Ehrlich [2] worked out at 1.3 mL. In addition, the inhibition in vivo at 33 mg/kg/day in the data set with Ehrlich [3] was determined as 58%. Further, the LD50 in data set [4] worked out at 1540 µmol/kg. The Stability result in data set [5] and in data set [6] was “Stable” each time.

For the compound `CC(=O)N[C@@H](Cc1ccccc1)C(=O)OCC#N`, the Survival result in the data set with Ehrlich [1] is “Active”. Moreover, the Activity with Ehrlich [2] came out at 3.9 mL. Besides, in the data set on Ehrlich [3], the inhibition in vivo at 33 mg/kg/day is 16%. For the same compound, the Stability result in data set [5] and in data set [6] was “Stable” throughout.

Turning to `O=C(N[C@H](Cc1ccccc1)C(=O)O)OCc1ccccc1`, in the data set with Ehrlich [1], the Survival entry is “Active”. Also, the Activity in the data set on Ehrlich [2] was determined as 4.3 mL. Moreover, the inhibition in vivo at 33 mg/kg/day with Ehrlich [3] was 0%.

For `C=COC(=O)[C@H](Cc1ccccc1)NC(=O)c1ccccc1`, in the data set with Ehrlich [1], the Survival result was “Active”. Further, the Activity in the data set with Ehrlich [2] was 2.1 mL. Further, the inhibition in vivo at 33 mg/kg/day with Ehrlich [3] came to 56.8%. The Stability entry in data set [5] and in data set [6] was “Stable” in each case.

As for `N#CCOC(=O)[C@@H](Cc1ccccc1)NC(=O)OCc1ccccc1`, the Activity with Ehrlich [2] is 1 mL. Further, in the data set with Ehrlich [3], the inhibition in vivo at 33 mg/kg/day was 72%. Also, the LD50 in data set [4] stood at 80 µmol/kg. Also, the Stability entry in data set [5] and in data set [6] was “Stable” in each case.

Regarding `N#CCOC(=O)[C@H](Cc1ccccc1)NC(=O)[C@H](Cc1ccccc1)NC(=O)OCc1ccccc1`, the Survival result in the data set on Ehrlich [1] is “Active”. Besides, the Activity in the data set on Ehrlich [2] turned out to be 1.5 mL. Moreover, the inhibition in vivo at 33 mg/kg/day in the data set on Ehrlich [3] was determined as 52%. For the same compound, the Stability result in data set [5] and in data set [6] was “Stable” in each case.

Regarding `Cc1ccc(S(=O)(=O)N[C@@H](Cc2ccccc2)C(=O)C(=O)CCl)cc1`, in the data set on Ehrlich [2], the Activity was determined as 0.01 mL. Besides, the inhibition in vivo at 33 mg/kg/day in the data set on Ehrlich [3] stood at 100%. This compound had an LD50 in data set [4] of 210 µmol/kg.

Regarding `O=C(N[C@@H](Cc1ccccc1)C(=O)OC(Cl)CCl)OCc1ccccc1` (stereo partly drawn), the Survival result in the data set with Ehrlich [1] was “Active”. Further, the Activity with Ehrlich [2] came out at 0.8 mL. In the data set with Ehrlich [3], the inhibition in vivo at 33 mg/kg/day was 93%. Also, in data set [4], the LD50 is 1260 µmol/kg.

With `C=COC(=O)[C@H](Cc1ccccc1)NC(=O)[C@H](Cc1ccccc1)NC(=O)OCc1ccccc1`, the Activity in the data set on Ehrlich [2] stood at 2.1 mL. Also, the inhibition in vivo at 33 mg/kg/day in the data set with Ehrlich [3] turned out to be 43%. In addition, the Stability result in data set [5] and in data set [6] was “Stable” each time.

Take `N[C@H](CO)Cc1ccccc1` [L-PHENYLALANINOL]: the Activity with Ehrlich [2] is 0.6 mL. The inhibition in vivo at 33 mg/kg/day with Ehrlich [3] was found to be 92%. The same compound registered an LD50 in data set [4] of 500 µmol/kg.

For `O=C(N[C@@H](Cc1ccccc1)C(=O)N[C@@H](Cc1ccccc1)C(=O)OC(Br)CBr)OCc1ccccc1` (stereo partly drawn), the Survival result in the data set on Ehrlich [1] is “Active”. Besides, the Activity with Ehrlich [2] amounted to 0.2 mL. Also, in the data set with Ehrlich [3], the inhibition in vivo at 33 mg/kg/day stood at 92%. For the same compound, the LD50 in data set [4] was determined as 780 µmol/kg.

For `Cl.N#CCOC(=O)[C@@H](N)Cc1ccccc1`, the Activity with Ehrlich [2] is 2.5 mL. The inhibition in vivo at 33 mg/kg/day in the data set with Ehrlich [3] was 9%. In addition, the Stability result in data set [5] and in data set [6] was “Stable” in each case.

Turning to `O=C(NC(Cc1ccccc1)C(=O)O)OCc1ccccc1` (racemic), the Activity in the data set with Ehrlich [2] is 2.6 mL. Further, the inhibition in vivo at 33 mg/kg/day with Ehrlich [3] stood at 52%.

On to `O=C(/C=C/c1ccccc1)N[C@@H](Cc1ccccc1)C(=O)O`, for which the Survival result in the data set with Ehrlich [1] was “Active”. The Activity with Ehrlich [2] was determined as 2.1 mL. For the same compound, the inhibition in vivo at 33 mg/kg/day in the data set on Ehrlich [3] is 58%. This compound also gave a 50% lethal dose (LD50) in data set [4] of 740 µmol/kg.

As for `C=COC(=O)[C@H](Cc1ccccc1)NS(=O)(=O)c1ccc(C)cc1`, the Activity in the data set on Ehrlich [2] worked out at 3.8 mL. Moreover, the inhibition in vivo at 33 mg/kg/day in the data set with Ehrlich [3] stood at 56.8%. In addition, the Stability result in data set [5] and in data set [6] was “Stable” each time.

Turning to `O=C(N[C@@H](Cc1ccccc1)C(=O)O)c1ccccc1`, the Survival result with Ehrlich [1] was “Active”. The Activity with Ehrlich [2] was 1.3 mL. For the same compound, the inhibition in vivo at 33 mg/kg/day with Ehrlich [3] came to 73%.

`C#CCOC(=O)[C@H](Cc1ccccc1)NC(=O)OCc1ccccc1`: the Activity in the data set on Ehrlich [2] is 3.3 mL. The inhibition in vivo at 33 mg/kg/day with Ehrlich [3] was 54%.

Consider `O=C(N[C@@H](Cc1ccccc1)C(=O)O)OCc1ccccc1`, for which the Survival result in the data set on Ehrlich [1] is “Active”. Further, the Activity in the data set with Ehrlich [2] came out at 0.6 mL. For the same compound, the inhibition in vivo at 33 mg/kg/day in the data set with Ehrlich [3] amounted to 75%. In addition, the LD50 in data set [4] was found to be 840 µmol/kg.

With `O=C(N[C@H](CO)Cc1ccccc1)OCc1ccccc1`, the Survival result with Ehrlich [1] was “Active”. In the data set on Ehrlich [2], the Activity was found to be 1.3 mL. Further, the inhibition in vivo at 33 mg/kg/day in the data set with Ehrlich [3] worked out at 55%.

Take `C=COC[C@H](Cc1ccccc1)NC(=O)OCc1ccccc1`: the Activity in the data set on Ehrlich [2] was 1.4 mL. In addition, the inhibition in vivo at 33 mg/kg/day in the data set on Ehrlich [3] worked out at 47%. Moreover, the Stability result in data set [5] and in data set [6] was “Stable” each time.

As to `N#CCOC(=O)[C@H](Cc1ccccc1)NC(=O)/C=C/c1ccccc1`, the Survival entry with Ehrlich [1] was “Active”. For the same compound, the Activity in the data set with Ehrlich [2] was 2.8 mL. Further, in the data set with Ehrlich [3], the inhibition in vivo at 33 mg/kg/day was determined as 27%. For the same compound, the Stability entry in data set [5] and in data set [6] was “Stable” throughout.

With `CCOC(=O)[C@H](Cc1ccccc1)NC(=O)OCc1ccccc1`, the Survival result in the data set on Ehrlich [1] is “Active”. In addition, the Activity in the data set with Ehrlich [2] is 1.5 mL. Also, the inhibition in vivo at 33 mg/kg/day with Ehrlich [3] came to 57%. In addition, the LD50 in data set [4] is 1530 µmol/kg.
